The values that follow come from ChEMBL document CHEMBL1765007, “Synthesis and biological evaluation of new 2-alkylaminoethyl-1,1-bisphosphonic acids against Trypanosoma cruzi and Toxoplasma gondii targeting farnesyl diphosphate synthase” (Bioorg Med Chem, 2011).

Structures are written as SMILES.

Assay [1] concerns the target T1, Farnesyl diphosphate synthase (Trypanosoma cruzi, UniProt Q8WS26).
T1 sequence (Q8WS26 whole entry): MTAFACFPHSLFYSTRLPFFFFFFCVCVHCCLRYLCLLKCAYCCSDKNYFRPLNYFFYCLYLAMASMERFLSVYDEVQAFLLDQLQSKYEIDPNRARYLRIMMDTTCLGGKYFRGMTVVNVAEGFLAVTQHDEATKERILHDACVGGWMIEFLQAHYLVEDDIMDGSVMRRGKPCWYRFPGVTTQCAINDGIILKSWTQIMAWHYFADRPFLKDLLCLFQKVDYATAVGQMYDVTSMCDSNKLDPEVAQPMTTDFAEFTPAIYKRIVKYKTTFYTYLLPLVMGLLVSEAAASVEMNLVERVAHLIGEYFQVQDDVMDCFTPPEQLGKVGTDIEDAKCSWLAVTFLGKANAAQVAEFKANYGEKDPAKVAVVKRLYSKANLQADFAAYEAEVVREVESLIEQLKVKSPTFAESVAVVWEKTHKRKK
The assay can be described thus: Inhibition of Trypanosoma cruzi FPPS after 30 mins using [14C]IPP by scintillation counting.

In assay [2] the test system is Trypanosoma cruzi. The assay can be described thus: Antiparasitic activity against Trypanosoma cruzi amastigotes infected in gamma-irradiated vero cells assessed as growth inhibition by fluorescence assay. The class given is functional, organism-based. The following applies: light or radiation study.
Assay [3] addresses T2, Farnesyl diphosphate synthase (Toxoplasma gondii, UniProt Q197X6).
T2 sequence (Q197X6 whole entry): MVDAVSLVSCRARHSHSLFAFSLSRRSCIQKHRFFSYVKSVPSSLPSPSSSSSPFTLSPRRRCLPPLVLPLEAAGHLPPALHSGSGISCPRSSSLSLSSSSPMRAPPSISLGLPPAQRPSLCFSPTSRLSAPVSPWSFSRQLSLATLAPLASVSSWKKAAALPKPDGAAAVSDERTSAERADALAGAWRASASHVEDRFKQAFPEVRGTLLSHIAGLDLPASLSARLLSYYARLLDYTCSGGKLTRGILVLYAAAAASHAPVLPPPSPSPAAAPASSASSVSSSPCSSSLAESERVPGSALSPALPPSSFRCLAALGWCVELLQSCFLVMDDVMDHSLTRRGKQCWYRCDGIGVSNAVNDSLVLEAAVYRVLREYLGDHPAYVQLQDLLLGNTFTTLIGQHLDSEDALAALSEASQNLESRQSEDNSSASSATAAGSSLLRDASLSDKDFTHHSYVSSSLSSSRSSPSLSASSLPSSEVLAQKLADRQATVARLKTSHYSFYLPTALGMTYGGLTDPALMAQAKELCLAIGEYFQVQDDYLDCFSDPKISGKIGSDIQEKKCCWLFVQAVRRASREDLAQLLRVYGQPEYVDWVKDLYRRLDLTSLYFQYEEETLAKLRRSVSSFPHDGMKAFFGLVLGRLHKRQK
The assay can be described thus: Inhibition of Toxoplasma gondii FPPS after 30 mins using [14C]IPP by scintillation counting.

Assay [4] concerns Toxoplasma gondii. The assay can be described thus: Antiparasitic activity against Toxoplasma gondii tachyzoite expressing red fluorescence protein assessed as growth inhibition by fluorescence plate reader. Format: functional, organism-based.
In assay [5] the test system is Toxoplasma gondii. The assay can be described thus: Antiparasitic activity against Toxoplasma gondii assessed as growth inhibition. Format: functional, organism-based.

For orientation: IC50 means the concentration that inhibits the measured activity by half.

As for `CCCCCCCCCCNCC(P(=O)(O)O)P(=O)(O)O`, the IC50 in assay [1] was more than 1000 nM; in assay [2] it was more than 10000 nM; in assay [3] it was 68 nM; in assay [4], more than 10000 nM.

For `CCCCCCNCC(P(=O)(O)O)P(=O)(O)O`, the IC50 in assay [5] is 9370 nM; in assay [2], 840 nM.

With `O=C(Cn1ccnc1[N+](=O)[O-])NCc1ccccc1` [BENZNIDAZOLE], the half-inhibitory concentration (IC50) in assay [2] worked out at 2770 nM.

For `CCCCCCCCCCCCCCCCNCC(P(=O)(O)O)P(=O)(O)O`, the half-inhibitory concentration (IC50) was determined as 2190 nM in assay [2] and 4130 nM in assay [4].

For `CCCCCCCCCCCNCC(P(=O)(O)O)P(=O)(O)O`, the half-maximal inhibitory concentration (IC50) in assay [1] was 856 nM; in assay [2], 5130 nM; in assay [3], 868 nM; in assay [4], more than 10000 nM.

As for `CCCCCCCCCCCCCCCCCCNCC(P(=O)(O)O)P(=O)(O)O`, the IC50 in assay [2] was more than 10000 nM; in assay [4] it was 5290 nM.

For the molecule `CCCCCCCCCNCC(P(=O)(O)O)P(=O)(O)O`, the IC50 was 430 nM in assay [1], more than 10000 nM in assay [2], 440 nM in assay [3] and more than 10000 nM in assay [4].

On to `O=P(O)(O)C(CNCc1ccccc1)P(=O)(O)O`, for which the half-maximal inhibitory concentration (IC50) in assay [1] is more than 1000 nM; in assay [2] it was more than 10000 nM; in assay [4] it was more than 10000 nM.

Consider `CCCCCCCCCCCCCCNCC(P(=O)(O)O)P(=O)(O)O`, for which the 50% inhibitory concentration (IC50) in assay [1] was more than 1000 nM; in assay [2] it was more than 10000 nM; in assay [3], 292 nM; in assay [4] it was 11300 nM.

For `CCCCCCCCCCCCNCC(P(=O)(O)O)P(=O)(O)O`, the concentration for half-maximal inhibition (IC50) in assay [1] amounted to 811 nM; in assay [2], 670 nM; in assay [3] it was 93 nM; in assay [4], 6230 nM.
